From ChEMBL document CHEMBL1131083, “Tipranavir (PNU-140690): a potent, orally bioavailable nonpeptidic HIV protease inhibitor of the 5,6-dihydro-4-hydroxy-2-pyrone sulfonamide class” (J Med Chem, 1998)

What was measured:
[1] = target: Human immunodeficiency virus type 1 protease (Human immunodeficiency virus 1, UniProt Q72874); assay: Inhibitory activity against HIV-1 protease in tandem assay.
[2] = target: Human immunodeficiency virus type 1 protease (Human immunodeficiency virus 1) (UniProt Q72874); assay: Inhibition of HIV-1 protease in a cell culture assay using HIV-1 IIIB infected H9 cells.; assay type: functional, cell-based
[3] = Inhibition of HIV-1 protease in a cell culture assay using HIV-1 IIIB infected H9 cells.
[4] = target: Human immunodeficiency virus type 1 protease (Human immunodeficiency virus 1) (UniProt Q72874); assay: Inhibitory activity against HIV-1 Protease in tandem assay; settings: concentration not given here
[5] = tested on: H9; assay: Inhibitory activity against HIV-1 Protease in a cell culture assay using HIV-1 IIIB infected H9 cells at 3 uM; assay type: functional; settings: Homo sapiens
[6] = tested on: H9; assay: Inhibitory activity against HIV-1 Protease in a cell culture assay using HIV-1 IIIB infected H9 cells at 1 uM; assay type: functional; settings: Homo sapiens

Structure (SMILES) | Ki [1] | IC90 [2] | also measured
CCC(C1=C(O)OC(C23C[C@H]4C[C@@H](C2)C[C@@H](C3)C4)CC1=O)c1cccc(NS(=O)(=O)c2cn(C)cn2)c1 (stereo not given in full) | 23 nM | – | –
CCCC1(CCc2ccccc2)CC(=O)C(C(c2cccc(NS(=O)(=O)c3ccc(C(F)(F)F)cn3)c2)C(C)(C)C)=C(O)O1 (stereo not given) | 4.3 nM | 990 nM | –
CCCC1(CCC)CC(=O)C(Cc2cccc(NS(=O)(=O)c3cn(C)cn3)c2)=C(O)O1 | – | – | inhibition [4]: 50%; inhibition at 3 µM [5]: 5%
CCC[C@@]1(CCc2ccccc2)CC(O)=C([C@H](CC)c2cccc(NS(=O)(=O)c3ccc(C(F)(F)F)cn3)c2)C(=O)O1 [TIPRANAVIR] | 0.008 nM | – | IC50 [3]: 30 nM
CCC[C@@]1(CCc2ccccc2)CC(=O)C([C@@H](CC)c2cccc(NS(=O)(=O)c3ccc(C(F)(F)F)cn3)c2)=C(O)O1 (stereo in doubt; 39c) | – | – | IC50 [3]: 1700 nM
CCC[C@@]1(CCc2ccccc2)CC(O)=C([C@H](CC)c2cccc(NS(=O)(=O)c3ccc(C#N)cn3)c2)C(=O)O1 | – | – | IC50 [3]: 40 nM
CCCC1(CCc2ccccc2)CC(=O)C(C(CC)c2cccc(NS(=O)(=O)c3cccc4cccnc34)c2)=C(O)O1 (stereo not given) | 3.1 nM | – | IC50 [3]: 1000 nM
CCC[C@@]1(CCc2ccccc2)CC(=O)C([C@H](CC)c2cccc(NS(=O)(=O)c3cn(C)cn3)c2)=C(O)O1 | 0.06 nM | 560 nM | –
CCCC1(CCc2ccccc2)CC(=O)C(C(CC)c2cccc(NS(=O)(=O)c3ccc(C#N)cc3)c2)=C(O)O1 (stereo not given) | 8.2 nM | – | IC50 [3]: 1100 nM
CCC(C1=C(O)OC(CCC2CC2)(CCC2CC2)CC1=O)c1cccc(NS(=O)(=O)c2cn(C)cn2)c1 (stereo not given) | 1.7 nM | 2900 nM | –
CCCC1(CCC)CC(=O)C(C(c2cccc(NS(=O)(=O)c3cn(C)cn3)c2)C(C)(C)C)=C(O)O1 (stereo not given) | 0.87 nM | 1000 nM | –
CCCC1(CCc2ccccc2)CC(=O)C(C(CC)c2cccc(NS(=O)(=O)CCC)c2)=C(O)O1 (stereo not given) | > 1 nM | – | –
CCCC1(CCc2ccccc2)CC(=O)C(C(CC)c2cccc(NS(=O)(=O)c3ccccc3)c2)=C(O)O1 (stereo not given) | – | – | IC50 [3]: 1600 nM
CCCC1(CCc2ccccc2)CC(=O)C(C(CC)c2cccc(NS(=O)(=O)c3cn(C)cn3)c2)=C(O)O1 (stereo not given) | 1.2 nM | – | –
CCC(C1=C(O)OC(COCCOCCOC)(COCCOCCOC)CC1=O)c1cccc(NS(=O)(=O)c2cn(C)cn2)c1 (stereo not given) | 28 nM | – | inhibition at 3 µM [5]: 0%
CCC[C@]1(CCc2ccccc2)CC(=O)C([C@H](CC)c2cccc(NS(=O)(=O)c3cn(C)cn3)c2)=C(O)O1 | 0.12 nM | 1000 nM | –
CCC(C1=C(O)OC(CC(C)C)(CC(C)C)CC1=O)c1cccc(NS(=O)(=O)c2cn(C)cn2)c1 (stereo not given) | 3 nM | 7400 nM | –
CCCC1(CCc2ccccc2)CC(=O)C(C(c2cccc(NS(=O)(=O)c3ccc(C#N)cc3)c2)C(C)(C)C)=C(O)O1 (stereo not given) | 12 nM | 3000 nM | –
CCCCCC1(CCCCC)CC(=O)C(C(CC)c2cccc(NS(=O)(=O)c3cn(C)cn3)c2)=C(O)O1 (stereo not given) | 2.6 nM | < 3000 nM | –
CCC[C@@]1(CCc2ccccc2)CC(=O)C([C@@H](CC)c2cccc(NS(=O)(=O)c3ccc(C(F)(F)F)cn3)c2)=C(O)O1 (stereo in doubt; 39d) | – | – | IC50 [3]: 410 nM
CCC[C@@]1(CCc2ccccc2)CC(=O)C([C@@H](CC)c2cccc(NS(=O)(=O)c3cn(C)cn3)c2)=C(O)O1 | 0.3 nM | > 1000 nM | –

Second part, led by results:

Ki [1] | IC90 [2] | Structure (SMILES) | also measured
0.1 nM | 1000 nM | CCC[C@@]1(CCc2ccccc2)CC(=O)C([C@@H](CC)c2cccc(NS(=O)(=O)c3ccc(C#N)cn3)c2)=C(O)O1 | –
3 nM | 2000 nM | CCCC1(CCc2ccc(F)cc2)CC(=O)C(C(CC)c2cccc(NS(=O)(=O)c3cn(C)cn3)c2)=C(O)O1 (stereo not given) | –
6.1 nM | – | CCCC1(CCc2ccccc2)CC(=O)C(C(CC)c2cccc(NS(=O)(=O)c3ccc(F)cc3)c2)=C(O)O1 (stereo not given) | IC50 [3]: 1200 nM
1 nM | 2000 nM | CCC(C1=C(O)OC(CCc2ccccc2)(CCc2ccccc2)CC1=O)c1cccc(NS(=O)(=O)c2cn(C)cn2)c1 (stereo not given) | –
1.9 nM | 340 nM | CCCC1(CCc2ccccc2)CC(=O)C(C(c2cccc(NS(=O)(=O)c3ccc(C#N)cn3)c2)C(C)(C)C)=C(O)O1 (stereo not given) | –
1.8 nM | 2000 nM | CCCC1(CCC)CC(=O)C(C(CC)c2cccc(NS(=O)(=O)c3cn(C)cn3)c2)=C(O)O1 (stereo not given) | –
13 nM | – | CCCC1(CCc2ccccc2)CC(=O)C(Cc2cccc(NS(=O)(=O)c3cn(C)cn3)c2)=C(O)O1 (stereo not given) | inhibition at 1 µM [6]: 0%
0.2 nM | 740 nM | CCCC1(CCc2ccccc2)CC(=O)C(C(c2cccc(NS(=O)(=O)c3ccc(N)cn3)c2)C(C)(C)C)=C(O)O1 (stereo not given) | –
0.04 nM | 890 nM | CCC[C@]1(CCc2ccccc2)CC(=O)C([C@H](CC)c2cccc(NS(=O)(=O)c3ccc(C#N)cn3)c2)=C(O)O1 | –
0.018 nM | 840 nM | CCC[C@]1(CCc2ccccc2)CC(=O)C(C(CC)c2cccc(NS(=O)(=O)c3ccc(C(F)(F)F)cn3)c2)=C(O)O1 (stereo not given in full) | –
0.71 nM | 1000 nM | CCCC1(CCc2ccccc2)CC(=O)C(C(c2cccc(NS(=O)(=O)c3cn(C)cn3)c2)C2CC2)=C(O)O1 (stereo not given) | –
0.52 nM | 3000 nM | CCCC1(CCC)CC(=O)C(C(c2cccc(NS(=O)(=O)c3cn(C)cn3)c2)C2CC2)=C(O)O1 (stereo not given) | –
1.2 nM | 690 nM | CCCC1(CCc2ccccc2)CC(=O)C(C(c2cccc(NS(=O)(=O)c3cn(C)cn3)c2)C(C)(C)C)=C(O)O1 (stereo not given) | –
0.1 nM | 470 nM | CCCC1(CCc2ccccc2)CC(=O)C(C(CC)c2cccc(NS(=O)(=O)c3ccc(C#N)cn3)c2)=C(O)O1 (stereo not given) | –
2.3 nM | > 3000 nM | CCCC1(CCc2ccccc2)CC(=O)C(C(c2cccc(NS(=O)(=O)c3ccc([N+](=O)[O-])cn3)c2)C(C)(C)C)=C(O)O1 (stereo not given) | –
